Paper PMC12064818, “A general assay platform to study protein pharmacology using ligand-dependent structural dynamics” (Nature Communications, 2025)
Values joined by “and” are separate entries in the source; they are usually repeats but may differ in a detail not shown here. Identical values can stand only once. Like-named read-outs stand apart in the source and are kept apart here.

Experiments:
PKA = settings: annotation yes/no for kinase library compound; source not given; cited from earlier work
ABL1 = settings: cited from earlier work
PKA-N-HiBiT [1] = molecular target: T1, PKA-N-HiBiT (Homo sapiens, UniProt P17612); experiment: SDR assay, PKA-N-HiBiT; settings: for SDR Ave Max Response / EC50: PKA-N-HiBiT qHTS, SDR assay; for SDR Ave Max Response: average maximal response; for EC50: read-out: PKA SDR Ave SDR50, average
[2] = molecular target: T2, ABL1-N-HiBiT kinase domain (Homo sapiens, UniProt P00519); experiment: SDR assay, ABL1-N-HiBiT; settings: for SDR output: ABL1-N-HiBiT, Log [Compound]; for ABL1 SDR pSDR50: heatmap data, 128 kinase inhibitors; for EC50: read-out: SDR Ave SDR50, average, unit inferred
T2 sequence (P00519 233-500): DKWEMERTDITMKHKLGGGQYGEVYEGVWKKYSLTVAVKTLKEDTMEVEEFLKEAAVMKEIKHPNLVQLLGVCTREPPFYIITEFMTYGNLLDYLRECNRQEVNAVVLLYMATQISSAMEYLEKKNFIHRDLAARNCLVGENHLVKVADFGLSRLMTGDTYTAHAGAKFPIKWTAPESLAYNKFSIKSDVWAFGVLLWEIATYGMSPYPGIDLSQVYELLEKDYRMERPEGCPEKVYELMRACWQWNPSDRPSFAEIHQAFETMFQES

PKA-N-HiBiT [3] = molecular target: T1, PKA-N-HiBiT; experiment: PKA peptide phosphorylation, Kinase-Glo Plus (KGP) assay, PKA-N-HiBiT; format: biochemical; parameters: containing amino acids Gly2-Phe351; His10 (N); made in house; host or cells: E. coli BL21(DE3)
Protocol: Kinase activity was measured by ATP depletion using the Kinase-Glo Plus (KGP) assay kit (Promega) in 1536-well plate format. […] Controls were added with a Mosquito dispenser (STP LabTech) while compounds were transferred with a pintool to each plate as described in Supplementary Data 8 and incubated for 30 min at ambient temperature. […] Following a 10 min incubation, KGP luminescence was measured with a ViewLux plate reader with 1 sec exposure, with medium to high gain setting, slow speed and 2x binning. Data were normalized to the average of no enzyme control column as 100% kinase inhibition and DMSO control column as 100% phosphorylation reaction progress. See Supplementary Table 5 for additional details.
Protocol for Abelson kinase (ABL1) and protein kinase A (PKA) peptide phosphorylation assays
Supplementary Table 5: Protocol for Abelson kinase (ABL1) and protein kinase A (PKA) peptide phosphorylation assays Sequence Param eter Value Description
3 Incubation 30 m in Incubate enzym e + com pounds at am bient tem p for 30 m in, protected from light […]
protocol; dispensed with BioRaptr 2

[4] = molecular target: T3, ABL1-C-HiBiT kinase domain (Homo sapiens, UniProt P00519); experiment: SDR assay, ABL1-C-HiBiT; settings: for SDR output: ABL1-C-HiBiT, Log [Compound]
T3 sequence (P00519 233-500): T2 sequence (P00519 233-500)

[5] = molecular target: T2, ABL1-N-HiBiT kinase domain; experiment: ABL1 peptide phosphorylation, Kinase-Glo Plus (KGP) assay, ABL1-N-HiBiT; format: biochemical; parameters: containing amino acid residues Asp233-Ser500; His10 (N); made in house; host or cells: E. coli BL21(DE3); settings: for IC50: ABL1-N-HiBiT qHTS, average, unit inferred, read-out: ABL1 KGP Ave IC50
DHFR-C-HiBiT = molecular target: T4, DHFR-C-HiBiT (Homo sapiens, UniProt P00374); experiment: SDR assay, purified DHFR-C-HiBiT; settings: DHFR-C-HiBiT 0.5 nM, 5 μM NADPH (SDR) vs 100 nM, 75 μM NADPH (functional)
T4 sequence (P00374 2-187): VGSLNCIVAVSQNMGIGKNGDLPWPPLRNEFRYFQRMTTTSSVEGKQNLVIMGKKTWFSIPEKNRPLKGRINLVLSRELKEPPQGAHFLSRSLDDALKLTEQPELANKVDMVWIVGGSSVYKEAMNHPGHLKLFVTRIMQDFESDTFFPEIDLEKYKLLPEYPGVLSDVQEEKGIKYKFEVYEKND

[6] = ABL1-N-HiBiT qHTS, average maximal SDR response

CC(C)(C)n1nc(-c2cccc3ccccc23)c2c(N)ncnc21 [1-Naphthyl PP1]
Annotated PKA activity (PKA): no | Annotated ABL1 activity (ABL1): yes | SDR Ave Max Response (PKA-N-HiBiT [1]): 10.40 | SDR Ave Max Response [2, 6]: 61.87

Cn1c(=O)c2c(ncn2C)n(C)c1=O [Caffeine]
Annotated PKA activity (PKA): no | Annotated ABL1 activity (ABL1): no | SDR Ave Max Response (PKA-N-HiBiT [1]): -17.81 | SDR Ave Max Response [2, 6]: 3.59 | Efficacy (PKA-N-HiBiT [3]; KGP Rep 1): -14.65 | Hill Coef (PKA-N-HiBiT [3]; KGP Rep 1): 2.85 | Max Resp (PKA-N-HiBiT [3]; KGP Rep 1): 7.79 | CC-v2 (PKA-N-HiBiT [3]; KGP Rep 1, curve class): 4

COc1cc2c(Oc3ccc4[nH]c(C)cc4c3F)ncnc2cc1OCCCN1CCCC1 [Cediranib]
Annotated PKA activity (PKA): no | Annotated ABL1 activity (ABL1): yes | SDR Ave Max Response (PKA-N-HiBiT [1]): 5.41 | SDR Ave Max Response [2]: 72.22

O=C(NCCO)c1cccc(-c2cc(Nc3ccc(OC(F)(F)F)cc3)ncn2)c1 [GNF5]
SDR output ([2]; M -4.51): -1.2 | SDR output ([2]; M -8.12): 1.9 and 2.5 | SDR output ([2]; M -8.42): 2.5 | SDR output ([2]; M -8.72): 2.7 and 1.9 | SDR output ([4]; M -4.20): 11.5 and 10.7 | SDR output ([4]; M -5.41): 4.5 and 3.0 | SDR output ([4]; M -5.71): 0.159 and 0.3 | SDR output ([4]; M -7.21): 1.8 and 1.6 | SDR output ([4]; M -7.52): 3.3 and 3.0 | SDR output ([4]; M -7.82): 5.4 and 5.3 | SDR output ([4]; M -8.12): 3.3 and 3.7 | SDR output ([4]; M -8.42): 7.4 and 4.5 | Effect on enzyme catalysis ([5]; Log [Compound], M -4.51): 1.2 and 2.4

O=C(NCCO)c1cccc(-c2cc(Nc3ccc(OC(F)(F)F)cc3)ncn2)c1 [GNF-5, reference compound]
Annotated PKA activity (PKA): no | Emax (PKA-N-HiBiT [1]; read-out: SDR Ave Max Response): 1.25% | detection in ABL1-N-HiBiT SDR assay (in words) [2]: neither was identified | Emax ([2]; read-out: SDR Ave Max Response): 13.8% | detection in ABL1-C-HiBiT SDR assay (in words) [4]: beginning to detect | detection in functional enzymatic ABL1 kinase assay (in words) ([5]; KGP assay): neither was identified

COc1ccc(S(=O)(=O)N(C(C)=O)c2ccccc2/C=C/c2cc[n+]([O-])cc2)cc1 [HMN-214]
Annotated PKA activity (PKA): no | Annotated ABL1 activity (ABL1): no | SDR Ave Max Response (PKA-N-HiBiT [1]): 5.93 | SDR Ave Max Response [2, 6]: 8.52

COc1cc(N2CCN(C)CC2)ccc1Nc1nc(N)c(C(=O)c2c(Cl)cccc2Cl)s1 [HMSL10089]
Annotated PKA activity (PKA): no | Annotated ABL1 activity (ABL1): no | SDR Ave Max Response (PKA-N-HiBiT [1]): -4.43 | SDR Ave Max Response [2]: 0.77

O=[N+]([O-])O[C@H]1CO[C@H]2[C@@H]1OC[C@H]2O[N+](=O)[O-] [Isosorbide dinitrate]
Annotated PKA activity (PKA): no | Annotated ABL1 activity (ABL1): no | SDR Ave Max Response (PKA-N-HiBiT [1]): 6.02 | SDR Ave Max Response [2, 6]: 6.72

C/C(O)=C(\C#N)C(=O)Nc1cc(Br)ccc1Br [LFM-A13]
Annotated PKA activity (PKA): no | Annotated ABL1 activity (ABL1): no | SDR Ave Max Response (PKA-N-HiBiT [1]): -81.79 | EC50 (PKA-N-HiBiT [1]): 4.14 µM | PKA SDR Assay Mean (pSDR50) (PKA-N-HiBiT [1]; without ATP): 5.40 | ABL1 SDR pSDR50 [2]: 5.44 | SDR Ave Max Response [2, 6]: -82.68 | EC50 ([2]; ABL1-N-HiBiT qHTS): 3.72 µM

CCN(CC)CCOc1ccc(Nc2ncc3cc(-c4c(Cl)cccc4Cl)c(=O)n(C)c3n2)cc1.Cl.Cl.O [PD-166285 hydrate]
Annotated PKA activity (PKA): no | Annotated ABL1 activity (ABL1): yes | SDR Ave Max Response (PKA-N-HiBiT [1]): -22.35 | SDR Ave Max Response [2, 6]: 51.60

Nc1ncnc2c1c(-c1cnc3[nH]ccc3c1)nn2C1CCCC1 [PP-121]
Annotated PKA activity (PKA): yes | Annotated ABL1 activity (ABL1): yes | SDR Ave Max Response (PKA-N-HiBiT [1]): 6.39

COc1ccccc1-c1c[nH]c2ncc(-c3cncc(C(=O)N(C)C)c3)cc12 [PPY A]
Annotated PKA activity (PKA): no | Annotated ABL1 activity (ABL1): yes | SDR Ave Max Response (PKA-N-HiBiT [1]): 11.97 | ABL1 SDR pSDR50 [2]: 8.52 | SDR Ave Max Response [2, 6]: 88.01 | EC50 ([2]; ABL1-N-HiBiT qHTS): 0.00304 µM | ABL1 KGP pIC50 ([5]; ABL1, Kinase-Glo Plus (KGP), heatmap data, 128 kinase inhibitors): 7.53 | IC50 [5]: 0.0341 µM

COc1cc2c(N3CCN(C(=O)Nc4ccc(OC(C)C)cc4)CC3)ncnc2cc1OCCCN1CCCCC1 [Tandutinib]
Annotated PKA activity (PKA): no | Annotated ABL1 activity (ABL1): no | SDR Ave Max Response (PKA-N-HiBiT [1]): 7.68 | SDR Ave Max Response [2]: 63.54

N#Cc1cn([C@@H]2O[C@H](CO)[C@@H](O)[C@H]2O)c2ncnc(N)c12 [Toyocamycin]
Annotated PKA activity (PKA): no | Annotated ABL1 activity (ABL1): no | SDR Ave Max Response (PKA-N-HiBiT [1]): -0.53 | ABL1 SDR pSDR50 [2]: 4.93 | SDR Ave Max Response [2, 6]: 72.44 | EC50 ([2]; ABL1-N-HiBiT qHTS): 12.8 µM

Nc1nc(N)c2nc(CNc3ccc(C(=O)N[C@@H](CCC(=O)O)C(=O)O)cc3)cnc2n1 [aminopterin]
enhanced sensitivity in the SDR assay format versus functional DHFR assay (DHFR-C-HiBiT): ~ 100 fold

COc1cc(NCc2ccc3nc(N)nc(N)c3c2C)cc(OC)c1OC [trimetrexate]
enhanced sensitivity in the SDR assay format versus functional DHFR assay (DHFR-C-HiBiT): ~ 100 fold

CN(Cc1cnc2nc(N)nc(N)c2n1)c1ccc(C(=O)NC(CC(F)C(=O)O)C(=O)O)cc1 (stereo not drawn) [γ-fluoromethotrexate]
enhanced sensitivity in the SDR assay format versus functional DHFR assay (DHFR-C-HiBiT): ~ 100 fold

I-BET762
Annotated ABL1 activity (ABL1): no | SDR Ave Max Response [2, 6]: 6.74

PF-562271 HCl
Annotated PKA activity (PKA): no | SDR Ave Max Response (PKA-N-HiBiT [1]): 40.60 | EC50 (PKA-N-HiBiT [1]): 4.56 µM | ABL1 SDR pSDR50 [2]: 4.94 | SDR Ave Max Response [2, 6]: 70.73 | EC50 ([2]; ABL1-N-HiBiT qHTS): 12 µM | IC50 (PKA-N-HiBiT [3]; PKA-N-HiBiT qHTS, Kinase-Glo Plus, average, read-out: PKA KGP Ave IC50): 45.5 µM | IC50 [5]: 5.86 µM
